Laboratory results: US20040072753A1, “Peptides for use in the treatment of alzheimer's disease” (priority 2000, published 2004)
Where a SMILES comes first, the peptide text is derived from it.

Experiments:
biotinylated Aβ 1-42 = biotinylated Aβ 1-42 (Homo sapiens, UniProt P05067); test: Binding of biotinylated Aβ 1-42 to CAβBP or EAβBP coated plates (ELISA, Scatchard); conditions: biotinylated peptide 200 pM
Method: After washing to remove unbound material, an alkaline phosphatase polymer-streptavidin conjugate (Sigma, Dorset, UK) was added and incubated at 37° C. for 2 hours. After washing to remove unbound material, p-nitrophenylphosphate substrate was added and absorbance at 405 nm determined.

biotinylated Aβ 12-28 = biotinylated Aβ 12-28 (Homo sapiens, UniProt P05067); test: Binding of biotinylated Aβ 12-28 to CAβBP or EAβBP coated plates (ELISA); conditions: biotinylated peptide 200 pM
Method: Biotinylated Aβ1-42, Aβ12-28 and Aβ 25-35 (from SEQ ID NO. 2) were prepared using a LinKit-Biolink kit (ISL, Paignton, UK). ELISA plates were coated with CAβBP (catalase residues 400409) or EAβBD (ERAB residues 99-108) (1 μg ml^−1) in carbonate buffer and unoccupied sites blocked with 5% (w/v) dried milk. Biotinylated peptides (200 pM) were incubated alone, with control peptides or with unlabelled Aβ peptides in PBS (containing 0.1% BSA and 0.05% Tween-20) at 37° C. for 4 hours. After washing to remove unbound material, an alkaline phosphatase polymer-streptavidin conjugate (Sigma, Dorset, UK) was added and incubated at 37° C. for 2 hours. After washing to remove unbound material, p-nitrophenylphosphate substrate was added and absorbance at 405 nm determined. Affinity constants were determined by incubating catalase or CAβBP coated plates with biotinylated peptides (200 pM) plus Aβ peptides over a range of concentrations (0-100 nM) and detection of bound peptides was carried out by ELISA.

[1] = target: T1, catalase EC 1.11.1.6 from human erythrocytes (Homo sapiens, UniProt P04040); test: Catalase enzyme activity, inhibition by Aβ peptides; assay type: biochemical; conditions: test peptides 2 μM
T1 construct: catalase EC 1.11.1.6 from human erythrocytes (Sigma, Dorset, UK) was used; purchased Sigma, Dorset, UK; host or cells: human erythrocytes
T1 sequence (P04040 2-527 limits assumed): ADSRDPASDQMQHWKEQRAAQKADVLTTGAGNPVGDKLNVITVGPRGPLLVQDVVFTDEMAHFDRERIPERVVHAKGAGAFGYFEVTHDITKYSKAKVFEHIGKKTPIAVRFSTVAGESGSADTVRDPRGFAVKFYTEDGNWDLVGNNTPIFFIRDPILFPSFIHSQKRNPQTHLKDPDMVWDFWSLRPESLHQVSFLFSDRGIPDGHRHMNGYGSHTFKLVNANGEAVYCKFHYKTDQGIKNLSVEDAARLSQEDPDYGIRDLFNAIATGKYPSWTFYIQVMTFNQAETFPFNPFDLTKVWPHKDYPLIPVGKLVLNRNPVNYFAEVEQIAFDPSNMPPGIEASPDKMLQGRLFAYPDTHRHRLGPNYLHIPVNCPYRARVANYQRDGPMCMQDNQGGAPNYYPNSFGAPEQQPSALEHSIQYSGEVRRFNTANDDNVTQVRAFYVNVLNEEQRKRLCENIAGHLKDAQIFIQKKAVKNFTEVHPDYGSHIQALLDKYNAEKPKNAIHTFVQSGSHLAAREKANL
Method: For catalase activity catalase EC 1.11.1.6 from human erythrocytes (Sigma, Dorset, UK) was used for all incubation experiments. Activity of Catalase (5kU I^−1) incubated with test peptides (2 μM) was determined after incubation in 60 mM sodium-potassium phosphate buffer at 37° C. in a total volume of 100 μl. After incubation catalase activity was determined by mixing 50 μl sample with 50 μl substrate (6.5 μmol H2O2 in phosphate buffer) for 60 secs, adding 100 μl of 32.4 mM ammonium molybdate and measurement of absorbance change at 405 nm. Catalase activity was calculated from a standard curve (0-10OkU I^−1) using purified human catalase of known activity (Milton, Biochem. J. 344: 293-296 (1999)).

[2] = system: SP2/0-Ag-14 mouse myeloma cells; test: Cytotoxicity of Aβ peptides, trypan blue dye exclusion; assay type: cell-based; conditions: test peptides 20 μM, 24 hours
Method: SP2/0-Ag-14 mouse myeloma cells were maintained in RPMI 1640 medium containing 10% fetal calf serum at 37° C. in a 5% CO2 humidified atmosphere. For cytotoxicity experiments 2×1 05 cells were plated in 24 well dishes in 1 ml PBS containing 0.1% BSA and test peptides (20 μM) for 24 hours. Cell viability was determined by trypan blue dye exclusion with at least 100 cells counted per well (Milton, Biochem. J. 344: 293-296 (1999)).

recombinant human cdc2 = recombinant human cdc2 (Homo sapiens, UniProt P06493); test: Binding of biotinylated Aβ peptides to recombinant human cdc2 coated plates (ELISA); conditions: biotinylated peptide 200 pM, 37° C. 4 hours
Method: (§1) After washing to remove unbound material, an alkaline phosphatase polymer-streptavidin conjugate (Sigma, Dorset, UK) was added and incubated at 37° C. for 2 hours.

[3] = target: T2, recombinant p34-cdc2/cyclin B1 (Homo sapiens, UniProt P06493); test: Phosphorylation of biotinylated Aβ peptides by recombinant p34-cdc2/cyclin B1 (32P incorporation); assay type: biochemical; conditions: 25 μM biotinylated peptide, 10 min at 30° C.
T2 construct: purchased Promega, UK
From the text: (§2) The membrane was washed four times in 2 M NaCl, followed by four times in 2 M NaCl containing 1% (v/v) H3PO4 and finally twice in deionized H2O to remove unbound material.

[4] = target: recombinant human cyclin B1 (Homo sapiens, UniProt P14635); test: Binding of biotinylated Aβ peptides to cyclin B1 coated plates (ELISA); conditions: biotinylated peptide
Method: as §1
Cyclins are co-factors for cdc2 which are required for enzyme activity. These proteins also contain substrate recognition sequences which may play a role in the recruitment of substrate molecules to the active cdc2/cyclin complex. The recombinant cdc2/cyclin enzyme complex used in the above phosphorylation experiments contained cyclin B1. […] Binding assays as described above using cyclin B1 coated plates were carried out.

cdc2/cyclin B1 = target: T3, cdc2/cyclin B1 (Homo sapiens, UniProt P06493+P14635); test: cdc2/cyclin B1 phosphorylation of biotinylated histone H1 substrate peptide; assay type: biochemical
T3 construct: purchased Promega, UK
From the text: as §2
Since Aβ binds to both the cdc2 and cyclin B1 components of the active enzyme it is possible that Aβ modulates the activity of the kinase.

Sequence of biotinylated Aβ 1-42 (P05067 672-713 limits assumed): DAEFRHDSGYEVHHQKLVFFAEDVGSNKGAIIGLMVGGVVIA
Sequence of recombinant human cdc2 (P06493 whole entry): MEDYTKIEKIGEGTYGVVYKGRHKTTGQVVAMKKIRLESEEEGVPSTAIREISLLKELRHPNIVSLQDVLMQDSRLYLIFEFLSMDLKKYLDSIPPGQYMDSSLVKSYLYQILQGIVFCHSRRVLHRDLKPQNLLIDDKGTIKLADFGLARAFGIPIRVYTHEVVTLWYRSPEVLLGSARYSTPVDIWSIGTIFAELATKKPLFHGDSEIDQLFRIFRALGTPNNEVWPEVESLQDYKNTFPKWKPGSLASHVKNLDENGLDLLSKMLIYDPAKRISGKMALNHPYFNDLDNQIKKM
T3 sequence (P06493 whole entry): as above
T3 sequence (P14635 whole entry): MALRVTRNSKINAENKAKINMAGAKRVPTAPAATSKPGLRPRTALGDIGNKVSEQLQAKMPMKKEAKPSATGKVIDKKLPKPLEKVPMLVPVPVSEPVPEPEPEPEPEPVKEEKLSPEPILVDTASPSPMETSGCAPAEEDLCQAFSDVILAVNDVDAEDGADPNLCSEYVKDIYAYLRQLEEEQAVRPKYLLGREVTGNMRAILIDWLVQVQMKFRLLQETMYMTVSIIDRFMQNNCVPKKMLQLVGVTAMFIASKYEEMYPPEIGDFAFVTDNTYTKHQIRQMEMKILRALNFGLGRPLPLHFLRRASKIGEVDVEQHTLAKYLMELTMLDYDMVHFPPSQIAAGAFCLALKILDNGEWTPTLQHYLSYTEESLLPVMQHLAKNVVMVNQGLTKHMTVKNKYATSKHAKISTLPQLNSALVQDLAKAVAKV
T2 sequence (P06493 whole entry): as the sequence (P06493 whole entry) above
T2 sequence (P14635 whole entry partner): as the sequence (P14635 whole entry) above
Sequence of recombinant human cyclin B1 (P14635 whole entry): as above

| binding of biotinylated Aβ 1-42 (biotinylated Aβ 1-42) | binding of biotinylated Aβ 12-28 (biotinylated Aβ 12-28) | block of the inhibition of catalase enzyme activity by Aβ 1-42 [1] | Compound | block of the cytotoxicity of Aβ 1-42 [2] | block of the cytotoxicity of Aβ fragments containing residues 17-35 [2] | binding to human cdc2 (recombinant human cdc2) | phosphorylation by cdc2 (incorporation of 32P from γ32P-ATP) [3] | binding to cyclin B1 [4] | effect on phosphorylation of the H1 peptide by cdc2/cyclin B1 (cdc2/cyclin B1) |
| --- | --- | --- | --- | --- | --- | --- | --- | --- | --- |
| specifically bound | specifically bound | no effect | CC(C)C[C@H](NC(=O)[C@H](CC(N)=O)NC(=O)[C@H](Cc1ccc(O)cc1)NC(=O)[C@@H](NC(=O)[C@@H](N)CCCCN)[C@@H](C)O)C(=O)N[C@@H](CCCCN)C(=O)N[C@@H](CCCCN)C(=O)NCC(=O)N[C@@H](CCC(N)=O)C(=O)N[C@H](C(=O)O)[C@@H](C)O [EAβBP] (H-KTYNLKKGQT-OH; N-terminus and C-terminus assumed) | able to block | able to block | – | – | – | – |
| – | – | – | Aβ 25-35: functional neurotoxic domain fragment of Aβ (GSNKGAIIGLM) | – | – | bound | incorporated | bound | increased |
